Where two headings read alike, the source gives them in different places.
Target: T1, recombinant DDB1-CRBN (Homo sapiens, UniProt Q96SW2)
T1 construct: His; made in house; host or cells: High Five insect cells (baculovirus made and propagated in SF9 cells)
Test: Fluorescence polarization-based competition assay for CRBN binding
Method: Prior to screening the compound library in the isogenic CPA, we assessed their CRBN binding affinities using a fluorescence-polarization-based competition assay with recombinant DDB1-CRBN and the fluorescent tracer 16 (Figure S2). […] We also assessed the cytotoxicity of the CRBN binders in RKO wild-type (WT) cells to determine the appropriate treatment concentration. […]
Fluorescence Polarization‐based competition assay
Fluorescence Polarization assays were performed in 384‐well, Low Volume, Black, Round Bottom, Polystyrene Nonbinding surface Microplates (Corning, #4514). The test compounds were incubated with 200 nM CRBN‐DDB1 and 20 nM Pomalidomide‐fluorescein tracer 16 in 50 mM Tris‐HCl pH 7.5, 200 mM NaCl, 1 mM DTT, 0.02% Triton X‐ 100, and 0.1 µg/µL Bovine Serum Albumin (Sigma Aldrich, #A7030) in a total volume of 25 µL. Fluorescence polarization values were determined with a PerkinElmer Envision reader with FITC FP dual mirror and FITC FP 480 excitation filter and FITC FP 535 emission filters. Fluorescence polarization values of a 10x serial dilution (10 nM to 100 µM) of the test compounds were determined in triplicates. EC50 values were calculated with GraphPad Prism software (version 10.0.2) with a non‐linear fit function (4PL sigmoidal curve fit) adjusting the bottom constrain to the FP value of free tracer. […]

[1] = 200 nM CRBN-DDB1, 20 nM pomalidomide-fluorescein tracer 16, triplicates, read-out: FP_CRBN_binding: CRBN binding affinity, EC50

Compound	EC50 [1]	EC50
CN(C)c1ncc(CN(C)S(=O)(=O)Oc2ccc(Nc3cccc4c3C(=O)N(C3CCC(=O)NC3=O)C4=O)cc2)cn1 (stereo not shown) [FL4-18]	1610 nM	
O=C1CCC(c2ccccc2OS(=O)(=O)F)C(=O)N1 (stereo not shown) [FL7]		72400 nM
CC(C)(O)C1CCN(S(=O)(=O)Oc2cccc(Nc3cccc4c3C(=O)N(C3CCC(=O)NC3=O)C4=O)c2)C1 (stereo not shown) [FL3-4]	446 nM	
CC1c2cc(F)ccc2CCN1S(=O)(=O)Oc1ccc(C2CCC(=O)NC2=O)cc1 (stereo not shown) [FL5-17]	908 nM	
CC1c2cccn2CCN1S(=O)(=O)Oc1cccc(Nc2cccc3c2C(=O)N(C2CCC(=O)NC2=O)C3=O)c1 (stereo not shown) [FL3-19]	742 nM	
CC(C)(O)C1CCN(S(=O)(=O)Oc2ccc(Nc3cccc4c3C(=O)N(C3CCC(=O)NC3=O)C4=O)cc2)C1 (stereo not shown) [FL4-4]	688 nM	
CC(O)CN(C)S(=O)(=O)Oc1cccc(Nc2cccc3c2C(=O)N(C2CCC(=O)NC2=O)C3=O)c1 (stereo not shown) [FL3-1]	301 nM	
O=C1CCC(N2C(=O)c3cccc(Nc4cccc(OS(=O)(=O)N5CCC(c6ccco6)C5)c4)c3C2=O)C(=O)N1 (stereo not shown) [FL3-12]	2700 nM	
CN(Cc1ccc2c(c1)OCO2)S(=O)(=O)Oc1ccc(Nc2ccc3c(c2)C(=O)N(C2CCC(=O)NC2=O)C3=O)cc1 (stereo not shown) [FL2-20]	2620 nM	
O=C1CCC(c2cccc(OS(=O)(=O)N3C[C@@H](F)[C@H](F)C3)c2)C(=O)N1 (stereo partly shown) [FL6-10]	1140 nM	
O=C1CCC(c2ccc(OS(=O)(=O)N3CCOCC3)cc2)C(=O)N1 (stereo not shown) [FL5-5]	829 nM	
CN(Cc1ccc2c(c1)OCO2)S(=O)(=O)Oc1cccc(Nc2cccc3c2C(=O)N(C2CCC(=O)NC2=O)C3=O)c1 (stereo not shown) [FL3-20]	1570 nM	
C[C@@H]1C[C@H](C)CN(S(=O)(=O)Oc2ccc(Nc3ccc4c(c3)C(=O)N(C3CCC(=O)NC3=O)C4=O)cc2)C1 (stereo partly shown) [FL2-6]	4220 nM	
Cc1cn2c(n1)CN(S(=O)(=O)Oc1ccc(Nc3ccc4c(c3)C(=O)N(C3CCC(=O)NC3=O)C4=O)cc1)CC2 (stereo not shown) [FL2-13]	526 nM	
CC1c2cccn2CCN1S(=O)(=O)Oc1ccc(C2CCC(=O)NC2=O)cc1 (stereo not shown) [FL5-19]	940 nM	
O=C1CCC(N2C(=O)c3cccc(Nc4cccc(OS(=O)(=O)N5CCOCC5)c4)c3C2=O)C(=O)N1 (stereo not shown) [FL3-5]	214 nM	
C[C@@H](O)CN(C)S(=O)(=O)Oc1cccc(Nc2ccc3c(c2)C(=O)N(C2CCC(=O)NC2=O)C3=O)c1 (stereo partly shown) [FL1-1]	321 nM	

Compound	EC50 [1]	EC50
O=C1CCC(c2ccc(OS(=O)(=O)N3CC(CCO)C3)cc2)C(=O)N1 (stereo not shown) [FL5-2]	1060 nM	
O=C1CCC(N2C(=O)c3cccc(Nc4ccc(OS(=O)(=O)N5C[C@@H](F)[C@H](F)C5)cc4)c3C2=O)C(=O)N1 (stereo partly shown) [FL4-10]	830 nM	
CC1(C)CN(S(=O)(=O)Oc2cccc(C3CCC(=O)NC3=O)c2)CCS1(=O)=O (stereo not shown) [FL6-7]	743 nM	
CN(Cc1ncc(C2CC2)o1)S(=O)(=O)Oc1cccc(Nc2cccc3c2C(=O)N(C2CCC(=O)NC2=O)C3=O)c1 (stereo not shown) [FL3-14]	882 nM	
CC1(C)CN(S(=O)(=O)Oc2ccc(Nc3ccc4c(c3)C(=O)N(C3CCC(=O)NC3=O)C4=O)cc2)CC2(CCOC2)O1 (stereo not shown) [FL2-8]	2590 nM	
O=C1CCC(N2C(=O)c3ccc(Nc4ccc(OS(=O)(=O)N5CCC(c6ccco6)C5)cc4)cc3C2=O)C(=O)N1 (stereo not shown) [FL2-12]	4780 nM	
CN(Cc1ccc2[nH]nnc2c1)S(=O)(=O)Oc1ccc(Nc2ccc3c(c2)C(=O)N(C2CCC(=O)NC2=O)C3=O)cc1 (stereo not shown) [FL2-15]	1650 nM	
CC1(C)CN(S(=O)(=O)Oc2cccc(Nc3cccc4c3C(=O)N(C3CCC(=O)NC3=O)C4=O)c2)CCS1(=O)=O (stereo not shown) [FL3-7]	348 nM	
O=C1CCC(N2C(=O)c3ccc(Nc4ccc(OS(=O)(=O)N5CC6(CNC(=O)N6)C5)cc4)cc3C2=O)C(=O)N1 (stereo not shown) [FL2-9]	414 nM	
CC(C)(O)C1CCN(S(=O)(=O)Oc2ccc(C3CCC(=O)NC3=O)cc2)C1 (stereo not shown) [FL5-4]	948 nM	
O=C1CCC(N2C(=O)c3cccc(Nc4ccc(OS(=O)(=O)N5CC(CCO)C5)cc4)c3C2=O)C(=O)N1 (stereo not shown) [FL4-2]	557 nM	
CN(Cc1ccc2[nH]nnc2c1)S(=O)(=O)Oc1cccc(C2CCC(=O)NC2=O)c1 (stereo not shown) [FL6-15]	520 nM	
CN(C1CC1)S(=O)(=O)Oc1ccc(C2CCC(=O)NC2=O)cc1 (stereo not shown) [FL5-21]	899 nM	
CN(Cc1ccc2[nH]nnc2c1)S(=O)(=O)Oc1cccc(Nc2cccc3c2C(=O)N(C2CCC(=O)NC2=O)C3=O)c1 (stereo not shown) [FL3-15]	990 nM	
CC1c2cc(F)ccc2CCN1S(=O)(=O)Oc1cccc(Nc2ccc3c(c2)C(=O)N(C2CCC(=O)NC2=O)C3=O)c1 (stereo not shown) [FL1-17]	1840 nM	
O=C1CCC(c2ccc(OS(=O)(=O)N3CC4(CNC(=O)N4)C3)cc2)C(=O)N1 (stereo not shown) [FL5-9]	1050 nM	
C[C@@H]1C[C@H](C)CN(S(=O)(=O)Oc2cccc(Nc3ccc4c(c3)C(=O)N(C3CCC(=O)NC3=O)C4=O)c2)C1 (stereo partly shown) [FL1-6]	3030 nM	

Further molecules by falling EC50 [1], results first:

EC50 [1]	Compound	EC50
4690 nM	C[C@@H]1C[C@H](C)CN(S(=O)(=O)Oc2ccc(C3CCC(=O)NC3=O)cc2)C1 (stereo partly shown) [FL5-6]	
1960 nM	CC1(C)CN(S(=O)(=O)Oc2ccc(Nc3cccc4c3C(=O)N(C3CCC(=O)NC3=O)C4=O)cc2)CC2(CCOC2)O1 (stereo not shown) [FL4-8]	
1720 nM	CN(Cc1ccc2c(c1)OCO2)S(=O)(=O)Oc1ccc(Nc2cccc3c2C(=O)N(C2CCC(=O)NC2=O)C3=O)cc1 (stereo not shown) [FL4-20]	
1340 nM	CC1(C)CN(S(=O)(=O)Oc2ccc(C3CCC(=O)NC3=O)cc2)CC2(CCOC2)O1 (stereo not shown) [FL5-8]	
1270 nM	CN(Cc1ncnn1C)S(=O)(=O)Oc1ccc(C2CCC(=O)NC2=O)cc1 (stereo not shown) [FL5-11]	
1080 nM	Cc1cn2c(n1)CN(S(=O)(=O)Oc1cccc(C3CCC(=O)NC3=O)c1)CC2 (stereo not shown) [FL6-13]	
1070 nM	CN(C1CC1)S(=O)(=O)Oc1cccc(C2CCC(=O)NC2=O)c1 (stereo not shown) [FL6-21]	
971 nM	O=C1CCC(N2C(=O)c3cccc(Nc4ccc(OS(=O)(=O)N5CCC(c6ccncc6)CC5)cc4)c3C2=O)C(=O)N1 (stereo not shown) [FL4-16]	
898 nM	CC1c2cccn2CCN1S(=O)(=O)Oc1cccc(Nc2ccc3c(c2)C(=O)N(C2CCC(=O)NC2=O)C3=O)c1 (stereo not shown) [FL1-19]	
874 nM	CC1c2cccn2CCN1S(=O)(=O)Oc1cccc(C2CCC(=O)NC2=O)c1 (stereo not shown) [FL6-19]	
837 nM	CN(Cc1ncc(C2CC2)o1)S(=O)(=O)Oc1cccc(C2CCC(=O)NC2=O)c1 (stereo not shown) [FL6-14]	
687 nM	CC1c2cccn2CCN1S(=O)(=O)Oc1ccc(Nc2cccc3c2C(=O)N(C2CCC(=O)NC2=O)C3=O)cc1 (stereo not shown) [FL4-19]	
679 nM	O=C1CCC(c2cccc(OS(=O)(=O)N3CCOCC3)c2)C(=O)N1 (stereo not shown) [FL6-5]	
676 nM	CN(C)c1ncc(CN(C)S(=O)(=O)Oc2cccc(Nc3cccc4c3C(=O)N(C3CCC(=O)NC3=O)C4=O)c2)cn1 (stereo not shown) [FL3-18]	
675 nM	O=C1CCC(N2C(=O)c3ccc(Nc4ccc(OS(=O)(=O)N5CC(CCO)C5)cc4)cc3C2=O)C(=O)N1 (stereo not shown) [FL2-2]	
645 nM	O=C1CCC(c2cccc(OS(=O)(=O)N3CCC(c4ccncc4)CC3)c2)C(=O)N1 (stereo not shown) [FL6-16]	
584 nM	C[C@@H](O)CN(C)S(=O)(=O)Oc1cccc(C2CCC(=O)NC2=O)c1 (stereo partly shown) [FL6-1]	
538 nM	CN(Cc1ncnn1C)S(=O)(=O)Oc1ccc(Nc2cccc3c2C(=O)N(C2CCC(=O)NC2=O)C3=O)cc1 (stereo not shown) [FL4-11]	
502 nM	CN(Cc1ccc2[nH]nnc2c1)S(=O)(=O)Oc1ccc(C2CCC(=O)NC2=O)cc1 (stereo not shown) [FL5-15]	
472 nM	Cc1cn2c(n1)CN(S(=O)(=O)Oc1cccc(Nc3cccc4c3C(=O)N(C3CCC(=O)NC3=O)C4=O)c1)CC2 (stereo not shown) [FL3-13]	
264 nM	O=C1CCC(N2C(=O)c3cccc(Nc4cccc(OS(=O)(=O)N5CCC(c6ccncc6)CC5)c4)c3C2=O)C(=O)N1 (stereo not shown) [FL3-16]	
